According to patent US4225619A, “Substituted fluoracylresorcinols” (Boehringer Ingelheim GmBH, priority 1976, dated 1980):
≈ marks a conversion by molar mass, not a printed value.

What was measured:
[1] = tested on: Staphylococcus aureus SG 511; test: Agar diffusion test (hole-test); type: cell-based; conditions: SG511, 18-20 hours at 37° C., read-out: MIC, A.D.T., Staphylococcus aureus SG 511
Description: (§1) The inhibitory effect on bacteria and fungi was examined by the serial dilution test and the agar diffusion test (hole-test). As bacteria were used: Staphylococcus aureus SG 511, Streptococcus Aronson, Streptococcus pyogenes At CC 86 68; as fungi: Candida albicans AT CC 10231, Trichophyton mentagrophytes AT CC 9129 and Aspergillus niger.
1. Meat extract agar: for St. aureus SG 511
The age of the primary cultures is 24 hours for bacteria and 14 days for fungi. The standardization of the suspension of microorganisms is effected using a photometer according to Eppendorf (test tube .phi.14 mm, filter 546 nm) and a suspension for comparison consisting of barium sulfate, this suspension being created by addition of 3.0 ml of 1% barium chloride solution to 97 ml of 1% sulfuric acid. After the standardization St. aureus SG 511 was diluted 1:1000 and Sc. pyogenes and Aronson 1:100 by means of sodium chloride solution. The fungi were used in an undiluted state.
40 mgm of the substance were put into a 10 ml measuring flask and filled up to the mark with the solvent (corresponds to a dilution of 1:250=4000 μg/ml).
The dilutions to the concentrations under test were effected with distilled water or the respective solvent.
19 ml of the nutrient medium were filled into sterile Petri dishes of a diameter of 8 cm and dried. Subsequently the agar plates were charged with 4 ml of seed agar. 100 ml of seed agar contain 1.25 ml of the suspension of microorganisms, an agar plate thus containing 0.05 ml of the suspension of microorganisms. After solidification of the agar, 5 holes of a diameter of 5 mm were punched into the plates and filled with 0.05 ml of the correspondingly concentrated substance solution.
Control tests merely using the solvent are to be carried out simultaneously.
(§2) Bacteria were incubated at 37° C. for 18-20 hours and fungi at 27° C. for 7 days.
The diameter of the area of inhibition in mm was measured after having deducted the diameter of the hole.

[2] = tested on: Staphylococcus aureus SG 511; test: Serial dilution test; type: cell-based; conditions: Staphylococcus aureus, SG511, 18-20 hours at 37° C., read-out: MIC, S.D.T., Staphylococcus aureus SG 511
Description: as §1
1. Meat extract broth: for St. aureus SG 511
The age of the primary cultures is 24 hours for bacteria and 14 days for fungi. The standardization of the suspension of microorganisms is effected using a photometer according to Eppendorf (test tube .phi.14 mm, filter 546 nm) and a suspension for comparison consisting of barium sulfate, this suspension being created by adition of 3.0 ml of 1% barium chloride solution to 97 ml of 1% sulfuric acid. After the standardization the bacteria were further diluted to a concentration of 1:1000 by means of sodium chloride solution, the fungi were used in an undiluted state.
40 mgm of the substance were put into a 10 ml measuring flask and filled up to the mark with the solvent (corresponds to a dilution of 1:250=4000 μg/ml). The further dilution series was standardized with distilled water or the respective solvent and the following substance concentrations were prepared: 1000; 250; 62.5 μg/ml.
The tubes were filled with 4.9 ml of the corresponding liquid nutrient medium. Then 0.1 ml of the substance dilution prepared above was added to each tube, so that the mentioned final concentrations were present. Finally each tube was inoculated with 0.1 ml of the standardized suspension of microorganisms. Control tests merely using the solvent are to be carried out simultaneously.
as §2
The measurement is carried out macroscopically defining the minimal inhibitory concentration (the lowest still microbiostatically effective concentration).

Row | Compound | MIC [1] [µg/mL] | MIC [2] [µg/mL]
1 | CCc1cc(C(=O)C(F)(F)F)c(O)cc1O [B, 5-Ethyl-2,4-dihydroxy-trifluoroacetophenone, reference compound] | 250 (≈ 1070 µM) | 20 (≈ 85.4 µM)
2 | O=C(c1ccc(O)cc1O)C(F)(F)F [A, 2,4-Dihydroxy-trifluoroacetophenone, reference compound] | 1000 (≈ 4850 µM) | 80 (≈ 388 µM)
3 | COc1ccc(C(=O)C(F)(F)F)c(OC)c1 [D, 2,4-Dimethoxy-trifluoroacetophenone, reference compound] | > 4000 | > 80
4 | CC(C)c1c(O)ccc(C(=O)C(F)(F)F)c1O [P, 2,4-Dihydroxy-3-isopropyl-trifluoroacetophenone] | 62.5 (≈ 252 µM) | 1.25 (≈ 5.04 µM)

Next, values leading:

Row | MIC [1] [µg/mL] | MIC [2] [µg/mL] | Compound
5 | ≤ 15.6 | 0.31 (≈ 1.03 µM) | CC1CCC(c2c(O)ccc(C(=O)C(F)(F)F)c2O)CC1 (centres unmarked) [H, 2,4-Dihydroxy-3-(4'-methyl)-cyclohexyl-trifluoro-acetophenone]
6 | 62.5 (≈ 238 µM) | 0.08 (≈ 0.305 µM) | CC(C)Cc1c(O)ccc(C(=O)C(F)(F)F)c1O [F, 2,4-Dihydroxy-3-iso-butyl-trifluoroacetophenone]
7 | 62.5 (≈ 267 µM) | 5 (≈ 21.4 µM) | CCc1c(O)ccc(C(=O)C(F)(F)F)c1O [C, 3-Ethyl-2,4-dihydroxy-trifluoroacetophenone, reference compound]
